Patent publication US5536491A, “^19 F poly aza macrocyclic MRI contrast medium” (Terumo Kabushiki Kaisha, priority 1993, dated 1996)

Key:
[1] = Measurement of imaging sensitivity (phantom experiment), 19F MRI; design: key to detectability as image at 500 mM / detectability as image at 100 mM / detectability as image at 50 mM / detectability as image at 10 mM / detectability as image at 5 mM / detectability as image at 1 mM / detectability as image at 500 μM / detectability as image at 100 μM: .smallcircle.: detectable as clear image; Δ: margially detectable as image; x: undetectable; conditions: 1.5 T; for detectability as image at 100 μM / detectability as image at 500 μM / detectability as image at 1 mM / detectability as image at 5 mM / detectability as image at 10 mM / detectability as image at 50 mM / detectability as image at 100 mM / detectability as image at 500 mM: 20 min, complexes GRASS TR 10/TE 2 msec, 5-FU spin echo TR 4500/TE 100 msec
Protocol: Measurement of imaging sensitivity (phantom experiment)
Each of metal complex solution with various concentration of the present invention was sealed in cylindrical acryl phantom with an inner diameter of 1 cm and a height of 10 cm and subject to imaging. SIGNA (1.5 T) available from GE was used as an MRI apparatus, and imaging was performed by using a surface coil 13 cm in diameter for fluorine. A GRASS method was used as a pulse sequence and measurement condition was as followed:
TR (repetition time)=10 msec;
The measurement was performed for 20 min., and the number of acquisition was 937. As references, alkaline aqueous solutions of 5-fluorouracil with various concentrations were imaged by an identical apparatus. […] The imaging time was 20 min., and the number of acquisition was twice. […] In contrast, each metal complex compound of the present […] of 0.5 mM to 5 mM.

[2] = Measurement of relaxation time (T1 and T2 of intramolecular fluorine atoms) by 90 MHz NMR; type: physicochemical; design: unit not given here; conditions: 10mM aqueous solution

Row | Molecule | detectability as image at 100 μM [1] | detectability as image at 500 μM [1] | detectability as image at 1 mM [1] | detectability as image at 5 mM [1] | detectability as image at 10 mM [1] | detectability as image at 50 mM [1] | detectability as image at 100 mM [1] | detectability as image at 500 mM [1] | concentration required for detection as a clear image ([1]; 20 min imaging) [mM] | T1 [2] | T2 [2]
1 | O=c1[nH]cc(F)c(=O)[nH]1 [Compound 5-FU, 5-fluorouracil, reference compound] | x | x | x | x | x | Δ | Δ | .smallcircle. | ≥ 500 | – | –
2 | O=C(O)CN1CCCN(CC(=O)O)CCN(Cc2ccc(C(F)(F)F)cc2)CCCN(CC(=O)O)CC1.[Gd] [Compound-3] | x | x | Δ | Δ | .smallcircle. | .smallcircle. | .smallcircle. | .smallcircle. | – | – | –
3 | O=C(O)CN1CCCN(CC(=O)O)CCN(Cc2cc(C(F)(F)F)cc(C(F)(F)F)c2)CCCN(CC(=O)O)CC1.[Gd] [Compound-4, gadolinium complex of 1-[3,5-bis(trifluoromethyl)benzyl]-,1,4,8,11-tetraazacyclotetradecane-4,8,11-triacetic acid] | x | Δ | .smallcircle. | .smallcircle. | .smallcircle. | .smallcircle. | .smallcircle. | .smallcircle. | – | 2.16 | 1.82
4 | O=C(O)CN1CCCN(Cc2cc(C(F)(F)F)cc(C(F)(F)F)c2)CCN(CC(=O)O)CCCN(Cc2cc(C(F)(F)F)cc(C(F)(F)F)c2)CC1.[Gd] [Compound-5] | x | Δ | .smallcircle. | .smallcircle. | .smallcircle. | .smallcircle. | .smallcircle. | .smallcircle. | – | – | –
5 | O=C(O)CN1CCN(CC(=O)O)CCN(Cc2cc(C(F)(F)F)cc(C(F)(F)F)c2)CCN(CC(=O)O)CC1.[Gd] [Compound-8, gadolinium complex of 1-[3,5-bis(trifluoromethyl)benzyl]1,4,7,10-tetraazacyclododecane-4,7,10-triacetic acid] | – | – | – | – | – | – | – | – | – | 2.11 | 1.79
6 | O=C(O)CN1CCCN(CC(=O)O)CCN(Cc2ccc(C(C(F)(F)F)(C(F)(F)F)C(F)(F)F)cc2)CCCN(CC(=O)O)CC1.[Gd] [Compound-10, gadolinium complex of 1-[4-[tris(trifluoromethyl)methyl]benzyl]-1,4,8,11-tetraazacyclotetradecane-4,8,11-triacetic acid] | – | – | – | – | – | – | – | – | – | 3.27 | 2.83
7 | O=C(O)CN1CCCN(CC(=O)O)CCN(Cc2ccc(/C=C/c3cc(C(F)(F)F)cc(C(F)(F)F)c3)cc2)CCCN(CC(=O)O)CC1.[Gd] [Compound-13, gadolinium complex of 1-[4-[2-trans-(3,5-bis(trifluoromethyl)phenyl)vinyl]benzyl]-1,4,8,11-tetraazacyclotetradecane-4,8,11-triacetic acid] | x | x | Δ | .smallcircle. | .smallcircle. | .smallcircle. | .smallcircle. | .smallcircle. | – | 12.6 | 9.31
8 | O=C(O)CN1CCCN(CC(=O)O)CCN(CC(=O)O)CCCN(CCN(Cc2cc(C(F)(F)F)cc(C(F)(F)F)c2)Cc2cc(C(F)(F)F)cc(C(F)(F)F)c2)CC1.[Gd] [Compound-20, gadolinium complex of 1-[N""',N""'-bis[3,5-bis(trifluoromethyl)benzyl]aminoethyl]-1,4,8,11-tetraazacyclotetradecane-4,8,11-triacetic acid] | Δ | Δ | .smallcircle. | .smallcircle. | .smallcircle. | .smallcircle. | .smallcircle. | .smallcircle. | – | – | –
9 | O=C(O)CN1CCCN(CC(=O)O)CCN(Cc2cc(C(F)(F)F)cc(C(F)(F)F)c2)CCCN(CC(=O)O)CC1.[Cu] [Compound-23, copper complex of 1-[3,5-bis(trifluoromethyl)benzyl]-1,4,8,11-tetraazacyclotetradecane-4,8,11-triacetic acid] | x | x | Δ | .smallcircle. | .smallcircle. | .smallcircle. | .smallcircle. | .smallcircle. | – | 36.5 | 24.9
10 | O=C([O-])CN1CCCN(CC(=O)[O-])CCN(Cc2cc(C(F)(F)F)cc(C(F)(F)F)c2)CCCN(CC(=O)[O-])CC1.[Cr+3] [Compound-24, chromium complex of 1-[3,5-bis(trifluoromethyl)benzyl]-1,4,8,11-tetraazacyclotetradecane-4,8,11-triacetic acid] | – | – | – | – | – | – | – | – | – | 15.5 | 10.4
11 | gadolinium complex of 1-[N""'-[3,5-bis(trifluoromethyl)benzyl]aminoethyl]-1,4,8,11-tetraazacyclotetradecane-4,8,11-triacetic acid [Compound-21] | – | – | – | – | – | – | – | – | – | 6.34 | 4.21
12 | gadolinium complex with 1-(2,2,2-trifluoroethyl)-1,4,8,11-tetraazacyclodecane-4,8,11-tetraacetic acid [Compound-1] | – | – | – | – | – | – | – | – | – | 1.73 | 1.58
